Data taken from ChEMBL document CHEMBL1201862, “PubChem BioAssay data set” (2004).
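How tested: cells in 96-well plates exposed to compound for 48 hours at five concentrations. GI50 is the concentration that inhibits growth by half.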 The source made the active and inactive calls. No stated cut-off is given here; in the data, active = GI50 up to about 1.1 µM and inactive = higher.

Assays:
Assay in all cases: NCI-60 cell line screen, 48 h
[1] = system: M14
[2] = system: CAKI-1
[3] = system: OVCAR-3
[4] = system: MOLT-4
[5] = system: U-251
[6] = system: NCI-H226
[7] = system: HCC 2998
[8] = system: HL-60
[9] = system: SK-MEL-28
[10] = system: UO-31
[11] = system: SN12C
[12] = system: SNB-19
[13] = system: LOX IMVI
[14] = system: SF-268
[15] = system: SK-MEL-2
[16] = system: RPMI-8226
[17] = system: SF-295
[18] = system: HT-29

Cc1c(NC(=S)NC(=O)c2ccc([N+](=O)[O-])cc2)c(=O)n(-c2ccccc2)n1C
GI50 [1]: > 100 µM (inactive)
GI50 [2]: > 100 µM (inactive)
GI50 [3]: > 100 µM (inactive)
GI50 [4]: > 100 µM (inactive)
GI50 [5]: > 100 µM (inactive)
GI50 [6]: > 100 µM (inactive)
GI50 [7]: > 100 µM (inactive)
GI50 [8]: > 100 µM (inactive)
GI50 [9]: > 100 µM (inactive)
GI50 [10]: > 100 µM (inactive)
GI50 [11]: > 100 µM (inactive)
GI50 [12]: > 100 µM (inactive)
GI50 [13]: > 100 µM (inactive)
GI50 [14]: > 100 µM (inactive)
GI50 [15]: > 100 µM (inactive)
GI50 [16]: > 100 µM (inactive)
GI50 [17]: > 100 µM (inactive)
GI50 [18]: > 100 µM (inactive)

CCOc1ccc(/N=C/c2ccc3ccccc3n2)cc1
GI50 [1]: > 100 µM (inactive)
GI50 [2]: > 100 µM (inactive)
GI50 [3]: > 100 µM (inactive)
GI50 [4]: > 100 µM (inactive)
GI50 [5]: > 100 µM (inactive)
GI50 [6]: > 100 µM (inactive)
GI50 [7]: > 100 µM (inactive)
GI50 [8]: > 47.1 µM (inactive)
GI50 [9]: > 100 µM (inactive)
GI50 [10]: 61.8 µM (inactive)
GI50 [11]: > 100 µM (inactive)
GI50 [12]: > 100 µM (inactive)
GI50 [13]: > 73.5 µM (inactive)
GI50 [14]: > 100 µM (inactive)
GI50 [15]: > 100 µM (inactive)
GI50 [16]: > 87.1 µM (inactive)
GI50 [17]: > 100 µM (inactive)
GI50 [18]: > 100 µM (inactive)

C=C(/C=C/C=C(\CO)CCC=C(C)C)[C@H]1CCC2([C@H](CCCO)/C(=C(/C)C=O)CC[C@]2(C)O)[C@H]1O (stereo not given in full)
GI50 [1]: > 100 µM (inactive)
GI50 [2]: > 100 µM (inactive)
GI50 [3]: > 100 µM (inactive)
GI50 [4]: > 100 µM (inactive)
GI50 [5]: > 100 µM (inactive)
GI50 [7]: > 100 µM (inactive)
GI50 [8]: 56.1 µM (inactive)
GI50 [9]: > 100 µM (inactive)
GI50 [12]: > 100 µM (inactive)
GI50 [13]: 54.2 µM (inactive)
GI50 [15]: > 100 µM (inactive)
GI50 [16]: > 100 µM (inactive)
GI50 [17]: 21.2 µM (inactive)
GI50 [18]: > 100 µM (inactive)

C[C@]12CCC(=O)C=C1CC[C@@H]1C2CC[C@]2(C)c3nn(-c4ccccc4)nc3CC12 (stereo not given in full)
GI50 [1]: > 100 µM (inactive)
GI50 [3]: > 100 µM (inactive)
GI50 [4]: > 100 µM (inactive)
GI50 [5]: > 100 µM (inactive)
GI50 [6]: > 100 µM (inactive)
GI50 [7]: > 100 µM (inactive)
GI50 [8]: > 100 µM (inactive)
GI50 [9]: > 100 µM (inactive)
GI50 [10]: > 100 µM (inactive)
GI50 [11]: > 100 µM (inactive)
GI50 [12]: > 100 µM (inactive)
GI50 [13]: > 100 µM (inactive)
GI50 [14]: > 100 µM (inactive)
GI50 [15]: > 100 µM (inactive)
GI50 [16]: > 100 µM (inactive)
GI50 [17]: > 100 µM (inactive)
GI50 [18]: > 100 µM (inactive)

CC1=C(O)C(=O)C2C(=O)C1C(C)C2c1ccccc1 (stereo not given)
GI50 [1]: > 100 µM (inactive)
GI50 [2]: > 100 µM (inactive)
GI50 [3]: > 100 µM (inactive)
GI50 [4]: > 100 µM (inactive)
GI50 [5]: > 100 µM (inactive)
GI50 [6]: > 100 µM (inactive)
GI50 [7]: > 100 µM (inactive)
GI50 [9]: > 100 µM (inactive)
GI50 [10]: > 100 µM (inactive)
GI50 [12]: > 100 µM (inactive)
GI50 [13]: > 100 µM (inactive)
GI50 [14]: > 100 µM (inactive)
GI50 [15]: > 100 µM (inactive)
GI50 [16]: > 100 µM (inactive)
GI50 [17]: > 100 µM (inactive)
GI50 [18]: > 100 µM (inactive)

COC1OC(CO)C(O)C(OC(C)=O)C1NC(=O)N(CCCl)N=O (stereo not given)
GI50 [1]: > 100 µM (inactive)
GI50 [2]: > 100 µM (inactive)
GI50 [3]: > 100 µM (inactive)
GI50 [4]: 95.9 µM (inactive)
GI50 [6]: > 100 µM (inactive)
GI50 [7]: > 100 µM (inactive)
GI50 [8]: 3.52 µM (inactive)
GI50 [9]: > 100 µM (inactive)
GI50 [11]: > 100 µM (inactive)
GI50 [12]: > 100 µM (inactive)
GI50 [13]: 55 µM (inactive)
GI50 [14]: 21.3 µM (inactive)
GI50 [15]: 0.0112 µM (active)
GI50 [17]: 42.7 µM (inactive)
GI50 [18]: > 100 µM (inactive)

O=S(O)CCCCSSCCCCSSCCCCS(=O)O
GI50 [1]: 11.2 µM (inactive)
GI50 [2]: 95.3 µM (inactive)
GI50 [3]: 33.9 µM (inactive)
GI50 [4]: 0.851 µM (active)
GI50 [5]: > 100 µM (inactive)
GI50 [7]: > 100 µM (inactive)
GI50 [8]: 3.25 µM (inactive)
GI50 [9]: 20.7 µM (inactive)
GI50 [10]: 29 µM (inactive)
GI50 [11]: 42.7 µM (inactive)
GI50 [12]: > 100 µM (inactive)
GI50 [13]: 12.8 µM (inactive)
GI50 [14]: 27.4 µM (inactive)
GI50 [15]: 24.9 µM (inactive)
GI50 [17]: 30.1 µM (inactive)
GI50 [18]: > 10 µM (inactive)

CCN1CC2(C)CC[C@@H](OC)C34[C@@H]2[C@H](OC(C)=O)C2(OCO[C@@]25C[C@H](OC)C2C[C@]3(O)[C@@H]5[C@H]2O)[C@H]14
GI50 [1]: > 100 µM (inactive)
GI50 [2]: > 100 µM (inactive)
GI50 [3]: > 100 µM (inactive)
GI50 [5]: > 100 µM (inactive)
GI50 [6]: > 100 µM (inactive)
GI50 [7]: > 100 µM (inactive)
GI50 [8]: > 100 µM (inactive)
GI50 [9]: > 100 µM (inactive)
GI50 [10]: > 100 µM (inactive)
GI50 [11]: > 100 µM (inactive)
GI50 [12]: > 100 µM (inactive)
GI50 [13]: > 100 µM (inactive)
GI50 [14]: > 100 µM (inactive)
GI50 [15]: > 100 µM (inactive)
GI50 [17]: > 100 µM (inactive)
GI50 [18]: > 100 µM (inactive)
